Laboratory results: patent US7998978B2 (Pfizer Inc., priority 2006, dated 2011)

Target: T1, JNK1α1 (Homo sapiens, UniProt P45983)
T1 construct: catalytic domain containing amino acids 1-364 and N-terminal hexahistidine tag; hexahistidine (His6) (N); made in house; host or cells: E. coli BL21 (DE3)
Assay: Coupled spectrophotometric (PK/LDH) JNK1α1 assay: % inhibition and Ki determination
Assay type: biochemical
Settings: for Ki: JNK-1; for inhibition at 1 µM / inhibition at 10 µM: read-out: % Inhibition JNK-1
Procedure, shortened: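 Initial rates were taken from the absorbance decrease at 340 nm at 30° C. Ki was fitted with a tight-binding model over 11 concentrations (top 100 μM); single-point inhibition was tested at 1 or 10 μM.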

T1 sequence (P45983 1-364): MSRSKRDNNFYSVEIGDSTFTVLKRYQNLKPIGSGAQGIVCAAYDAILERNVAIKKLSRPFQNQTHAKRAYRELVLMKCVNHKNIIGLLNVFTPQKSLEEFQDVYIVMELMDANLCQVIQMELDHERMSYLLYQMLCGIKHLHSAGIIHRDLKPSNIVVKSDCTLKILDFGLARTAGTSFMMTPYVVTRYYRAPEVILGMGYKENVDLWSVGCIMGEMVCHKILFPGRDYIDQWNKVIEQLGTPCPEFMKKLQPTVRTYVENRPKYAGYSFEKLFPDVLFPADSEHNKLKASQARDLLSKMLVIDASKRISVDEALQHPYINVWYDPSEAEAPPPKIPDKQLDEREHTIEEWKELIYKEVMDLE

Work on `CCCC(CO)NC(=O)c1ccc2cnc(N[C@H]3CC[C@H](O)CC3)nc2c1` (stereo partly drawn) [Example 332, 2-[(trans-4-hydroxycyclohexyl)amino]-N-[1-(hydroxymethyl)butyl]quinazoline-7-carboxamide] yielded a Ki of 424 nM.

In the case of `O=C(NC1CCOC1)c1cccc2cnc(N[C@H]3CC[C@H](O)CC3)nc12` (stereo partly drawn) [Example 111, 2-[(trans-4-hydroxycyclohexyl)amino]-N-(tetrahydrofuran-3-yl)quinazoline-8-carboxamide], the Ki is reported as 142 nM.

Compound `O[C@H]1CC[C@H](Nc2ncc3cccc(OCC(F)(F)F)c3n2)CC1` [Example 244, trans-4-{[8-(2,2,2-trifluoroethoxy)quinazolin-2-yl]amino}cyclohexanol] has a Ki of 234 nM.

`CC(C)[C@@H](CO)NC(=O)c1ccc2cnc(NC3CCCC3)nc2c1` [Example 407, 2-(cyclopentylamino)-N-[(1S)-1-(hydroxymethyl)-2-methylpropyl]quinazoline-7-carboxamide] was tested, and the Ki was 735 nM.

`O[C@H]1CC[C@H](Nc2ncc3ccc(F)cc3n2)CC1` [Example 143, trans-4-[(7-fluoroquinazolin-2-yl)amino]cyclohexanol] showed a Ki of 337 nM.

Work on `Cc1cccn(CCNC(=O)c2cccc3cnc(N[C@H]4CC[C@H](O)CC4)nc23)c1=O` [Example 531, 2-[(trans-4-hydroxycyclohexyl)amino]-N-[2-(3-methyl-2-oxopyridin-1(2H)-yl)ethyl]quinazoline-8-carboxamide] yielded an inhibition at 1 µM of 26%.

`O=C(N[C@@H](CO)c1ccccc1)c1cccc2cnc(N[C@H]3CC[C@H](O)CC3)nc12` [Example 471, 2-[(trans-4-hydroxycyclohexyl)amino]-N-[(1R)-2-hydroxy-1-phenylethyl]quinazoline-8-carboxamide] showed an inhibition at 1 µM of 19%.

In the case of `Cc1nnc(C(C)NC(=O)c2cccc3cnc(N[C@H]4CC[C@H](O)CC4)nc23)[nH]1` (stereo partly drawn) [Example 510, 2-[(trans-4-hydroxycyclohexyl)amino]-N-[1-(5-methyl-4H-1,2,4-triazol-3-yl)ethyl]quinazoline-8-carboxamide], the inhibition at 10 µM is reported as 25%.

Compound `c1cc2cnc(NC3CCOCC3)nc2cc1O[C@H]1CCOC1` [Example 163, 7-[(3S)-tetrahydrofuran-3-yloxy]-N-(tetrahydro-2H-pyran-4-yl)quinazolin-2-amine] has a Ki of 1740 nM.

`Cc1ccc2c(c1)CCC2C(=O)Nc1cc2cc(-c3cn[nH]c3)ccc2cn1` (centres unmarked) [Example 21, 5-methyl-N-[6-(1H-pyrazol-4-yl)isoquinolin-3-yl]indane-1-carboxamide] was tested, and the Ki was > 50 nM.

With `Cc1ccc2cnc(N[C@H]3CC[C@H](O)CC3)nc2c1OCC(=O)N1CCS(=O)(=O)CC1` [Example 214, trans-4-({8-[2-(1,1-dioxidothiomorpholin-4-yl)-2-oxoethoxyl]-7-methylquinazolin-2-yl}amino) cyclohexanol] the Ki was 1300 nM.

Compound `O[C@H]1CC[C@H](Nc2ncc3ccc(OCC4CCOC4)cc3n2)CC1` (stereo partly drawn) [Example 155, trans-4-{[7-(tetrahydrofuran-3-ylmethoxy)quinazolin-2-yl]amino}cyclohexanol] has a Ki of 156 nM.

For `O=C(NCCn1ccccc1=O)c1cccc2cnc(N[C@H]3CC[C@H](O)CC3)nc12` [Example 528, 2-[(trans-4-hydroxycyclohexyl)amino]-N-[2-(2-oxopyridin-1(2H)-yl)ethyl]quinazoline-8-carboxamide], the inhibition at 1 µM was 26%.

`CN(C)C(C)(C)COc1cccc2cnc(N[C@H]3CC[C@H](O)CC3)nc12` [Example 251, trans-4-({8-[2-(dimethylamino)-2-methylpropoxy]quinazolin-2-yl}amino)cyclohexanol] was tested, and the inhibition at 1 µM was 19%.

`CCC(CO)NC(=O)c1cccc2cnc(N[C@H]3CC[C@H](O)CC3)nc12` (stereo partly drawn) [Example 442, 2-[(trans-4-hydroxycyclohexyl)amino]-N-[1-(hydroxymethyl)propyl]quinazoline-8-carboxamide] gave a Ki of 83 nM.

For `O=C1CC[C@H](COc2ccc3cnc(N[C@H]4CC[C@H](O)CC4)nc3c2)N1` [Example 284, (5R)-5-[({2-[(trans-4-hydroxycyclohexyl)amino]quinazolin-7-yl}oxy)methyl]pyrrolidin-2-one], the inhibition at 1 µM was 53%.

In the case of `CC(C)c1ncc(NC(=O)c2cccc3cnc(N[C@H]4CC[C@H](O)CC4)nc23)cn1` [Example 321, 2-[(trans-4-hydroxycyclohexyl)amino]-N-(2-isopropylpyrimidin-5-yl)quinazoline-8-carboxamide], the inhibition at 1 µM is reported as 39%.

`O[C@H]1CC[C@H](Nc2ncc3ccccc3n2)CC1` [Example 151, trans-4-(quinazolin-2-ylamino)cyclohexanol] gave a Ki of 432 nM.

Compound `CCC[C@@H](CO)NC(=O)c1ccc2cnc(NC3CCC3)nc2c1` [Example 398, 2-(cyclobutylamino)-N-[(1S)-1-(hydroxymethyl)butyl]quinazoline-7-carboxamide] has a Ki of 447 nM.

`CC(C)N[C@H]1CC[C@H](Nc2ncc3cccc(OC4CCOCC4)c3n2)CC1` [Example 191, trans-N-isopropyl-N′-[8-(tetrahydro-2H-pyran-4-yloxy)quinazolin-2-yl]cyclohexane-1,4-diamine] was tested, and the Ki was 698 nM.

Work on `NCCOc1ccc(-c2cccc3cnc(N[C@H]4CC[C@H](O)CC4)nc23)cc1` [Example 202, trans-4-({8-[4-(2-aminoethoxy)phenyl]quinazolin-2-yl}amino) cyclohexanol] yielded a Ki of 77 nM.

`c1ccc(-c2nc(CNc3cc4cc(-c5cn[nH]c5)ccc4cn3)c[nH]2)cc1` [Example 225, N-[(2-phenyl-1H-imidazol-4-yl)methyl]-6-(1H-pyrazol-4-yl)isoquinolin-3-amine] was tested, and the Ki was 5160 nM.

`CC(C)(C)OC(=O)N1C[C@H](C(=O)Nc2cc3cc(-c4cn[nH]c4)ccc3cn2)[C@@H](c2ccccc2)C1` [Example 36] showed a Ki of 8 nM.

Compound `O=C(NCc1nncn1C1CCCCC1)c1cccc2cnc(N[C@H]3CC[C@H](O)CC3)nc12` [Example 497, N-[(4-cyclohexyl-4H-1,2,4-triazol-3-yl)methyl]-2-[(trans-4-hydroxycyclohexyl)amino]quinazoline-8-carboxamide] has an inhibition at 1 µM of 13%.

`Cn1c(CCNC(=O)c2cccc3cnc(N[C@H]4CC[C@H](O)CC4)nc23)nc2cccnc21` [Example 520, 2-[(trans-4-hydroxycyclohexyl)amino]-N-[2-(3-methyl-3H-imidazo[4,5-b]pyridin-2-yl)ethyl]quinazoline-8-carboxamide] gave an inhibition at 1 µM of 10%.

`CC(C)C(=O)N[C@H]1CC[C@H](Nc2ncc3cccc(OC4CCOC4)c3n2)CC1` (stereo partly drawn) [Example 186, 2-methyl-N-(trans-4-{[8-(tetrahydrofuran-3-yloxy)quinazolin-2-yl]amino)cyclohexyl)propanamide] was tested, and the Ki was 607 nM.

In the case of `CC(C)[C@@H](CO)NC(=O)c1cccc2cnc(N[C@H]3CC[C@H](O)CC3)nc12` [Example 445, 2-[(trans-4-hydroxycyclohexyl)amino]-N-[(1S)-1-(hydroxymethyl)-2-methylpropyl]quinazoline-8-carboxamide], the Ki is reported as 110 nM.

`CC(C)[C@@H](CO)NC(=O)c1ccc2cnc(NC3CCC3)nc2c1` [Example 424, 2-(cyclobutylamino)-N-[(1S)-1-(hydroxymethyl)-2-methylpropyl]quinazoline-7-carboxamide] gave an inhibition at 1 µM of 22%.

Work on `O=C(NCC1CCOC1)c1cccc2cnc(N[C@H]3CC[C@H](O)CC3)nc12` (stereo partly drawn) [Example 107, 2-[(trans-4-hydroxycyclohexyl)amino]-N-(tetrahydrofuran-3-ylmethyl)quinazoline-8-carboxamide] yielded a Ki of 250 nM.

With `O=C(NC[C@H]1C[C@@H]1CO)c1ccc2cnc(N[C@H]3CC[C@H](O)CC3)nc2c1` [Example 350, 2-[(trans-4-hydroxycyclohexyl)amino]-N-{[(1S,2S)-2-(hydroxymethyl)cyclopropyl]methyl} quinazoline-7-carboxamide] the Ki was 1040 nM.

For `CC(C)(C)N1CC(CNC(=O)c2cccc3cnc(N[C@H]4CC[C@H](O)CC4)nc23)CC1=O` (stereo partly drawn) [Example 503, N-[(1-tert-butyl-5-oxopyrrolidin-3-yl)methyl]-2-[(trans-4-hydroxycyclohexyl)amino]quinazoline-8-carboxamide], the inhibition at 10 µM was 54%.

Work on `COC[C@H]1CCC[C@H]1NC(=O)c1cccc2cnc(N[C@H]3CC[C@H](O)CC3)nc12` [Example 506, 2-[(trans-4-hydroxycyclohexyl)amino]-N-[(1R,2S)-2-(methoxymethyl)cyclopentyl]quinazoline-8-carboxamide] yielded an inhibition at 1 µM of 37%.

Work on `CC(C)(C)C(=O)N1CCC(NC(=O)c2cccc3cnc(N[C@H]4CC[C@H](O)CC4)nc23)C1` (stereo partly drawn) [Example 504, N-[1-(2,2-dimethylpropanoyl)pyrrolidin-3-yl]-2-[(trans-4-hydroxycyclohexyl)amino]quinazoline-8-carboxamide] yielded an inhibition at 10 µM of 40%.

In the case of `CN1CC(CNC(=O)c2cccc3cnc(N[C@H]4CC[C@H](O)CC4)nc23)OCC1=O` (stereo partly drawn) [Example 525, 2-[(trans-4-hydroxycyclohexyl)amino]-N-[(4-methyl-5-oxomorpholin-2-yl)methyl]quinazoline-8-carboxamide], the inhibition at 10 µM is reported as 41%.

In the case of `O=C(Nc1cc2cc(-c3cn[nH]c3)ccc2cn1)c1ccccc1` [Example 17, N-[6-(1H-pyrazol-4-yl)isoquinolin-3-yl]benzamide], the Ki is reported as > 30 nM.

Work on `O[C@H]1CC[C@H](Nc2ncc3ccc(OC4CCOCC4)cc3n2)CC1` [Example 268, trans-4-{[7-(tetrahydro-2H-pyran-4-yloxy)quinazolin-2-yl]amino}cyclohexanol] yielded an inhibition at 1 µM of 67%.

In the case of `Cc1cc(C)nc(NC(=O)c2cccc3cnc(N[C@H]4CC[C@H](O)CC4)nc23)n1` [Example 313, N-(4,6-dimethylpyrimidin-2-yl)-2-[(trans-4-hydroxycyclohexyl)amino]quinazoline-8-carboxamide], the inhibition at 10 µM is reported as 71%.

`O[C@H]1CC[C@H](Nc2ncc3ccc(O[C@H]4CCOC4)cc3n2)CC1` [Example 160, trans-4-({7-[(3S)-tetrahydrofuran-3-yloxy]quinazolin-2-yl}amino)cyclohexanol] showed a Ki of 70 nM.
